Source: US11154589B2, “Antimicrobial composition combinations comprising star shaped peptide polymers” (The University of Melbourne, priority 2016, dated 2021)
Converted amounts (≈) assume the structure as drawn. Read-outs that look alike come from different tables or passages of the source. Marks after values point to notes of the source that are not given here. Blank lines part the entries; values can stand above or below the compound they belong to.

What was measured:
[1] = system: CMDR A. baumannii (FADDI-AB156); experiment: Antibiogram of CMDR A. baumannii (MIC); type: cell-based, Acinetobacter baumannii; conditions: for Susceptibility: interpreted by CLSI resistant breakpoints
[2] = system: CMDR P. aeruginosa (FADDI-PA067); experiment: Antibiogram of CMDR P. aeruginosa; type: cell-based, Pseudomonas aeruginosa; conditions: for Susceptibility: interpreted by CLSI resistant breakpoints
[3] = system: Pseudomonas aeruginosa (P. aeruginosa, ATCC 47085); experiment: MBC determination (in vitro antimicrobial experiment, CFU counting); type: cell-based; conditions: Pseudomonas aeruginosa, ATCC47085; compound alone; P. aeruginosa (wild-type)
Protocol: (§1) Freeze-dried cultures of Escherichia coli (E. coli, ATCC 25922), Klebsiella pneumoniae (K. pneumoniae, ATCC 13883), Pseudomonas aeruginosa (P. aeruginosa, ATCC 47085), Acinetobacter baumannii (A. baumannii, ATCC 19606), colistin and multidrug-resistant (CMDR) A. baumannii (FADDI-AB156), and CMDR P. aeruginosa (FADDI-PA067) were grown aerobically and maintained by passage at ambient temperature on horse blood agar (10% v/v defibrinated horse blood, 4.4% w/v Oxoid Blood Agar Base No. 2). Overnight cultures were made from transferring a colony (ca. half a loop) from the agar plates to culture tubes containing sterilized Luria-Bertani broth (LB, 1% w/v Bacto™ Tryptone, 1% w/v NaCl, 0.5% w/v Oxoid Yeast Extract) (20 mL). Bacterial cultures were incubated overnight at 37° C. with aeration and without agitation, with the exception of the two P. aeruginosa strains (ATCC 47085 and FADDI-PA067) which were cultured at 37° C. with aeration and agitation (150 rpm). On the next day, for E. coli, K. pneumonia, P. aeruginosa (ATCC 47085), and CMDR P. aeruginosa (FADDI-PA067), small aliquots (i.e., 0.5-3 mL) were taken from the culture tubes, further diluted with LB (20 mL), and incubated for 3-4 h at 37° C. with aeration before use. All bacterial cultures were cultured without agitation, with the exception of P. aeruginosa ATCC 47085 and FADDI-PA067 which were cultured with shaking at 150 rpm. For A. baumannii, an aliquot of 0.5 mL was taken from the overnight culture tube, further diluted with LB (200 mL), and incubated overnight at 37° C. with aeration before use.
(§2) The 96-well plate was then incubated at 37° C. for 1.5 or 3 h. For each well, microbial solution was diluted with saline (0.9% NaCl solution) using an appropriate dilution factor and placed on a LB agar plate (LB broth containing 15 g/L Oxoid Blood Agar Base No. 2). For E. coli, K. pneumoniae, and A. Baumannii (ATCC 19606 and FADDI-AB156), the agar plates were incubated overnight at room temperature, and then at 37° C. with aeration for 2 h. For P. Aeruginosa (ATCC 47085 and FADDI-PA067), the agar plates were incubated at 37° C. with aeration. The number of colony-forming units (CFU) was counted and expressed as CFU/mL. Positive controls consisting of cells without any treatment were used. […] A minimum of two independent experiments (biological replicates) of the assay were conducted and three technical replicates were used in each experiment. Data is expressed as mean±standard deviation (SD) and analysed using student's t-test.

[4] = system: CMDR P. aeruginosa (FADDI-PA067); experiment: as above; type: cell-based, Pseudomonas aeruginosa; conditions: Pseudomonas aeruginosa, compound alone
Protocol: as §1, §2

[5] = system: Pseudomonas aeruginosa (P. aeruginosa, ATCC 47085); experiment: S16-antibiotic co-administration, synergy by Bliss Independence and HSA models; type: cell-based; conditions: for MBC in combination: S16 and antibiotic co-administered, each at MBC50
Protocol: as §2
(§3) The Bliss Independence and HSA models were used to calculate drug synergism. […] Biotechnol. 31, 160-165 (2013). With the Bliss Independence model, synergism was calculated using the formula, BICAB=A+B−AB (1), where A and B are the effects of the two drugs in isolation and BICAB is the combined effect of the two drugs as predicted by the Bliss Independence model. […] In the HSA model, if CAB is greater than the greater of A and B, CAB>max(A, B), synergy is observed. The quantitative effect of the compounds when administered alone (i.e., A and B) or in combination (i.e., CAB) was defined as the fractional reduction of the population, R=1−CFUt/CFU0, where CFUt is the CFU/mL measured after treatment, and CFU0 is the CFU/mL measured before treatment.

[6] = system: CMDR P. aeruginosa (FADDI-PA067); experiment: as above; type: cell-based, Pseudomonas aeruginosa; conditions: for MBC in combination: S16 and antibiotic co-administered, each at MBC50, 3 h
Protocol: as §2, §3

[7] = system: Acinetobacter baumannii (A. baumannii, ATCC 19606); experiment: MBC determination (in vitro antimicrobial experiment, CFU counting); type: cell-based; conditions: Acinetobacter baumannii, ATCC19606; compound alone; A. baumannii (wild-type)
Protocol: as §1, §2

[8] = system: CMDR A. baumannii (FADDI-AB156); experiment: as above; type: cell-based, Acinetobacter baumannii; conditions: Acinetobacter baumannii, compound alone
Protocol: as §1, §2

[9] = system: Acinetobacter baumannii (A. baumannii, ATCC 19606); experiment: S16-antibiotic co-administration, synergy by Bliss Independence and HSA models; type: cell-based; conditions: for MBC in combination: S16 and antibiotic co-administered, each at MBC50
Protocol: as §2, §3

[10] = system: CMDR A. baumannii (FADDI-AB156); experiment: as above; type: cell-based, Acinetobacter baumannii; conditions: for MBC in combination: S16 and antibiotic co-administered, each at MBC50, 3 h
Protocol: as §2, §3

[11] = Acinetobacter baumannii, CMDR A. baumannii (FADDI-AB156), read-out: MIC
[12] = CMDR A. baumannii (FADDI-AB156)
[13] = co-administered S16 (at MBC50) and antibiotic, antibiotic concentration giving at least 2-log reduction in CFU/mL, 3 h
[14] = antibiotic in combination with S16, 3 h, Bliss Independence model
[15] = antibiotic in combination with S16, 3 h, Highest Single Agent model

Compound: NCC[C@H](O)C(=O)N[C@@H]1C[C@H](N)[C@@H](O[C@H]2O[C@H](CN)[C@@H](O)[C@H](O)[C@H]2O)[C@H](O)[C@H]1O[C@H]1O[C@H](CO)[C@@H](O)[C@H](N)[C@H]1O [Amikacin]
MIC [1, 11]: ≥ 109 µM
Susceptibility [1, 12]: Resistant

Compound: C[C@H]1[C@H](NC(=O)/C(=N\OC(C)(C)C(=O)O)c2csc(N)n2)C(=O)N1S(=O)(=O)O [Aztreonam]
Susceptibility [2]: Resistant

Compound: O=C(O)c1cn(C2CC2)c2cc(N3CCNCC3)c(F)cc2c1=O [Ciprofloxacin]
MIC [1, 11]: ≥ 12.1 µM

Compound: C[C@H]1c2cccc(O)c2C(=O)C2=C(O)[C@]3(O)C(=O)C(C(N)=O)=C(O)[C@@H](N(C)C)[C@@H]3[C@@H](O)[C@@H]21 [Dox, doxycycline]
MBC [3]: 50.7 µM (≈ 22.5 µg/mL)
MBC [4]: 630 µM (≈ 280 µg/mL)
MBC in combination ([5]; P. aeruginosa, 3 h): 25.3 µM
Fold reduction of MBC ([6]; MBCeff with S16 versus MBC alone): 4.2 fold
MBC in combination [6]: 295.3 µM
MBC in combination, MBCeff [6, 13]: 148.2^a μM

Compound: CCn1cc(C(=O)O)c(=O)c2ccc(C)nc21 [Nalidixic Acid]
MIC ([1]; Acinetobacter baumannii): ≥ 138 µM
Susceptibility [1, 12]: Resistant

Compound: O=C1CN(/N=C/c2ccc([N+](=O)[O-])o2)C(=O)N1 [Nitrofurantoin]
MIC [1, 11]: ≥ 2150 µM

Compound: CCn1cc(C(=O)O)c(=O)c2cc(F)c(N3CCNCC3)cc21 [Norfloxacin]
MIC [1, 11]: ≥ 50.1 µM
Susceptibility [1, 12]: Resistant

Compound: CCN1CCN(C(=O)N[C@@H](C(=O)N[C@@H]2C(=O)N3[C@@H]2SC(C)(C)[C@@H]3C(=O)O)c2ccccc2)C(=O)C1=O [Piperacillin]
Susceptibility [2]: Resistant

Compound: CC1(C)S[C@@H]2[C@H](NC(=O)[C@H](C(=O)O)c3ccsc3)C(=O)N2[C@H]1C(=O)O [Ticarcillin]
Susceptibility [2]: Resistant

Compound: NC[C@H]1O[C@H](O[C@H]2[C@H](O)[C@@H](O[C@H]3O[C@H](CO)[C@@H](O)[C@H](N)[C@H]3O)[C@H](N)C[C@@H]2N)[C@H](N)C[C@@H]1O [Tob, tobramycin]
MBC [7]: 15.2 µM (≈ 7.11 µg/mL)
MBC [3]: 3.9 µM (≈ 1.82 µg/mL)
MBC [4]: 239 µM (≈ 112 µg/mL)
MBC [8]: > 2190 µM
Interaction with S16 as evaluated by the Bliss Independence and HSA models (in words) ([9]; A. baumannii wild-type, 3 h time point): non-synergistic
Antimicrobial activity on co-administration with S16 compared to compounds alone (log change in CFU/mL) ([9]; A. baumannii wild-type, all compounds at MBC50, t=3 h): antagonism
MBC in combination ([9]; A. baumannii, 3 h): 7.6 µM
Synergistic? (Yes/No) Bliss* ([9]; antibiotic in combination with S16, A. baumannii, 3 h, Bliss Independence model): No
Synergistic? (Yes/No) HAS* ([9]; antibiotic in combination with S16, A. baumannii, 3 h, Highest Single Agent model): No
Interaction with S16 as evaluated by the Bliss Independence and HSA models (in words) ([5]; P. aeruginosa wild-type, 3 h time point): non-synergistic
Antimicrobial activity on co-administration with S16 compared to compounds alone (log change in CFU/mL) ([5]; P. aeruginosa wild-type, all compounds at MBC50, t=3 h): antagonism
MBC in combination ([5]; P. aeruginosa, 3 h): 1.9 µM
Synergistic? (Yes/No) Bliss* ([5]; antibiotic in combination with S16, P. aeruginosa, 3 h, Bliss Independence model): No
Synergistic? (Yes/No) HAS* ([5]; antibiotic in combination with S16, P. aeruginosa, 3 h, Highest Single Agent model): No
Interaction with S16 as evaluated by the Bliss Independence and HSA models (in words) ([6]; 3 h time point): non-synergistic
MBC in combination [6]: 119.7 µM
Antimicrobial activity on co-administration with S16 compared to compounds alone (log change in CFU/mL) ([6]; all compounds at MBC50, t=3 h): antagonistic
Synergistic? (Yes/No) Bliss* [6, 14]: No
Synergistic? (Yes/No) HAS* [6, 15]: No
Interaction with S16 as evaluated by the Bliss Independence and HSA models (in words) ([10]; 3 h time point): non-synergistic
MBC in combination [10]: 2190.3 µM
Antimicrobial activity on co-administration with S16 compared to compounds alone (log change in CFU/mL) ([10]; all compounds at MBC50, t=3 h): antagonistic
Synergistic? (Yes/No) Bliss* [10, 14]: No
Synergistic? (Yes/No) HAS* [10, 15]: No
Susceptibility [2]: Resistant
MIC [1, 11]: > 2190 µM
Susceptibility [1, 12]: Resistant

Compound: COc1cc(Cc2cnc(N)nc2N)cc(OC)c1OC [Trimethoprim]
MIC [1, 11]: ≥ 55.1 µM
Susceptibility [1, 12]: Resistant

Compound: Colistin Sulfate
Susceptibility, concentration in parentheses [2]: > 110.8 µM
Susceptibility [2]: Resistant
Susceptibility [1, 12]: Resistant
MIC ([1]; CMDR A. baumannii (FADDI-AB156), read-out: MIC): 13.8 µM

The next lines start with results.

MIC [1, 11]: ≥ 141 µM
Compound: Cc1nnc(SCC2=C(C(=O)O)N3C(=O)[C@@H](NC(=O)Cn4cnnn4)[C@H]3SC2)s1 [Cefazolin]
Susceptibility [1, 12]: Resistant

MIC [1, 11]: ≥ 133 µM
Compound: CO/N=C(\C(=O)N[C@@H]1C(=O)N2C(C(=O)[O-])=C(C[N+]3(C)CCCC3)CS[C@H]12)c1csc(N)n1 [Cefepime]
Susceptibility [1, 12]: Resistant

MIC [1, 11]: ≥ 150 µM
Compound: CO[C@@]1(NC(=O)Cc2cccs2)C(=O)N2C(C(=O)O)=C(COC(N)=O)CS[C@@H]21 [Cefoxitin]
Susceptibility [1, 12]: Resistant

MIC [1, 11]: ≥ 117 µM
Compound: CC(C)(O/N=C(\C(=O)N[C@@H]1C(=O)N2C(C(=O)[O-])=C(C[n+]3ccccc3)CS[C@H]12)c1csc(N)n1)C(=O)O [Ceftazidime]
Susceptibility [2]: Resistant
Susceptibility [1, 12]: Resistant

MIC [1, 11]: ≥ 115 µM
Compound: CO/N=C(\C(=O)N[C@@H]1C(=O)N2C(C(=O)O)=C(CSc3nc(=O)c(=O)[nH]n3C)CS[C@H]12)c1csc(N)n1 [Ceftriaxone]
Susceptibility [1, 12]: Resistant

MIC [1, 11]: 355 µM (≈ 106 µg/mL)
Compound: C[C@@H](O)[C@H]1C(=O)N2C(C(=O)O)=C(SCCN=CN)C[C@H]12 [Imi, imipenem]
MBC [7]: 37.8 µM (≈ 11.3 µg/mL)
MBC [8]: 355 µM (≈ 106 µg/mL)
MBC in combination ([9]; A. baumannii, 3 h): 19.0 µM
Fold reduction of MBC ([10]; MBCeff in combination versus MBC alone): 4.0 fold
MBC in combination [10]: 177.4 µM
MBC in combination, MBCeff [10, 13]: 88.2^a μM

MIC [1, 11]: ≥ 41.7 µM
Compound: C[C@@H](O)[C@H]1C(=O)N2C(C(=O)O)=C(S[C@@H]3CN[C@H](C(=O)N(C)C)C3)[C@H](C)[C@H]12 [Meropenem]
Susceptibility [1, 12]: Resistant
